Earlier results, collected in patent publication US12091391B2, “Reagents and methods for bioorthogonal labeling of biomolecules in living cells” (Oregon State University, priority 2015, dated 2024).

- half-life in vivo: 16.1 h
Substance: cyclopropane-fused trans cyclooctene [sTCO]
